The test deals with NK1−/− and wild-type mice. To be noted: wild-type versus NK1−/− mice; FIG. 13. The procedure: The effect of betaxolol and desipramine was tested using similar protocols to those used for testing the effect of d-amphetamine.

In the case of `CC(C)NCC(O)COc1ccc(CCOCC2CC2)cc1` (stereo not shown) [betaxolol], the locomotor activity result is “not all drugs that increase locomotor activity in wild-type mice reduce it in NK1^−/− mice”.

The record behind these values is patent US20100169994A1, “ANIMAL MODEL” (priority 2007, published 2010).
